Assay results published in patent publication US9624167B2, “N-(4-hydroxy-4-methyl-cyclohexyl)-4-phenyl-benzenesulfonamides and N-(4-hydroxy-4-methyl-cyclohexyl)-4-(2-pyridyl)benzenesulfonamides and their therapeutic use” (PIMCO 2664 LIMITED, priority 2013, dated 2017).
Like-named read-outs stand apart in the source and are kept apart here. Marks after values point to notes of the source that are not given here.

What was measured:
[1] = Rodent pharmacokinetics study; type: in vivo, Sprague-Dawley rats; details: rat; for p.o. AUC: dosed at 10 mg/kg orally (‡)
hERG ion channel = target: T1, hERG ion channel (Homo sapiens, UniProt Q12809); assay: hERG Ion Channel Assay (Q-patch, hERG-CHO cells); type: cell-based; details: hERG tail current, hERG-CHO cells, Q-patch; read-out: IC50 (1)
T1 construct: expressed in transfected cells; host or cells: Chinese Hamster Ovary cells (hERG-CHO), stably transfected
T1 sequence (Q12809 whole entry): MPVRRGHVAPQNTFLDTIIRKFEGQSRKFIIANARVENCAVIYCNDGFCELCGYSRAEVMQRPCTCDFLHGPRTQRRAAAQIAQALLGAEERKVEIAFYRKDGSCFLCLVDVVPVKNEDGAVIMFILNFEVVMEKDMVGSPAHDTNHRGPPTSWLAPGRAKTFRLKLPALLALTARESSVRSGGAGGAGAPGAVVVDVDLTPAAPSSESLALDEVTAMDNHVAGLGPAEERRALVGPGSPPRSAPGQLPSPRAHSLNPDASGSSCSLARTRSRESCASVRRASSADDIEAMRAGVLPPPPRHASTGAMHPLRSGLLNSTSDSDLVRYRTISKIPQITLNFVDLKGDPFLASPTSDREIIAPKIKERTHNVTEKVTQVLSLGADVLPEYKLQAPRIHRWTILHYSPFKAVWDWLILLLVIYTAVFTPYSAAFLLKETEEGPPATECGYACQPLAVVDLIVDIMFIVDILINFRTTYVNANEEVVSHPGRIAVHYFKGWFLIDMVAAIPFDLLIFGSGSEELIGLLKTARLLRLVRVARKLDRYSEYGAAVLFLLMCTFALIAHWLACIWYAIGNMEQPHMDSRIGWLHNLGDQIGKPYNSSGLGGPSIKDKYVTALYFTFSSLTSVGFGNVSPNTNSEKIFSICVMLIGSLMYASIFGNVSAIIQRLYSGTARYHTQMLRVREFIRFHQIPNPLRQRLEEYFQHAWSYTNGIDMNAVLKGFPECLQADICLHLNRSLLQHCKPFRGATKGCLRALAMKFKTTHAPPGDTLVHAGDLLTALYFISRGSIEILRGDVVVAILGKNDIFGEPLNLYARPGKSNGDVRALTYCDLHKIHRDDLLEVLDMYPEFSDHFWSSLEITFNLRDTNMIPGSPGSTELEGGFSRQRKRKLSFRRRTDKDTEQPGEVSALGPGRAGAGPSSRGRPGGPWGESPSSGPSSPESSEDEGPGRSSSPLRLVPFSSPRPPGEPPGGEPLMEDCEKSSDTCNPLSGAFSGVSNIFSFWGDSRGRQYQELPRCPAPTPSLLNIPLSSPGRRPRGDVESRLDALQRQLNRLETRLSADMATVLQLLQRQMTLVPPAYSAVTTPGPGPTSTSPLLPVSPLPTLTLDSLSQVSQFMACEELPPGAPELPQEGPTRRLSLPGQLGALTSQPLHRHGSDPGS
Protocol: The activity of the compounds against the hERG ion channel was tested. The assay was conducted using the automated path-clamp, Q-patch method using stably transfected Chinese Hamster Ovary cells (hERG-CHO). hERG-CHO cells were cultured in F-12 Kaighn's Nutrient Mixture medium (Invitrogen)+10% FBS at 37° C. for 1-3 days. Cells were kept at 30° C. for 24 to 48 hours prior to patch clamping in order to increase the hERG current amplitude. Subsequently, the cells were harvested by trypsinisation, and kept in Serum Free Medium (SFM) in the Q-patch cell preparation state for up to 6 hours at room temperature before being washed and re-suspended in extracellular solution and applied to the patch clamp sites for data recording.
Patch-clamp voltage protocol: After whole cell configuration was achieved, the cell was held at −80 mV. A 50 millisecond pulse to −40 mV was delivered to measure the leaking current, which was subtracted from the tail current on-line. Then the cell was depolarized to +20 mV for 2 seconds, followed by a one second pulse to −40 mV to reveal hERG tail current. This paradigm was delivered once every 5 seconds to monitor the current amplitude.
Extracellular solution: 137 mM NaCl, 4 mM KCl, 1.8 mM CaCl2, 1 mM MgCl2, 10 mM D(+)-glucose, 10 mM HePES buffer (pH adjusted to 7.4 with NaOH).
After the whole cell configuration was achieved, the extracellular solution (control) was applied first and the cell was stabilized for 2 minutes in extracellular solution. The test compound was then applied from low concentrations to high concentrations cumulatively. The cell was incubated with each test concentration for 5 minutes. During each incubation, the cell was repetitively stimulated using the voltage protocol described above, and the tail current amplitude was continuously monitored.
• (1) Peak tail current >100 pA in control. • (2) Initial run-down <30% and the run-down stops before first application of the test compound. • (3) Leak currents <50% of the control peak tail currents at any time. • (4) rs<20 MΩ throughout the experiment.
The degree of inhibition (%) was obtained by measuring the tail current amplitude, induced by a one second test pulse to −40 mV after a two second pulse to +20 mV, before and after incubation with the test compound. The difference in current was normalized to control and multiplied by 100 in order to obtain the percent inhibition.
Concentration (log) response curves were fitted to a logistic equation (three parameters assuming complete block of the current at very high test compound concentrations) to generate estimates of the 50% inhibitory concentration (IC50). The concentration-response relationship of each compound was constructed from the percentage reductions of current amplitude by sequential concentrations.

[2] = test system: collagen-induced arthritis; assay: Mouse Collagen-Induced Arthritis; type: in vivo, DBA/1j mice
Protocol: Seven- to eight-week-old male DBA/1j mice were used for all procedures. Animals were housed in groups of 10, and were maintained at 21° C.±2° C. on a 12-hour light/dark cycle with food and water ad libitum. […]. All mice were immunised subcutaneously with 200 μg of bovine type II collagen in CFA. 21 days later, all mice were immunised subcutaneously with 100 μg of bovine type II collagen in IFA.
The mice started to develop signs and symptoms of arthritis following the ‘booster’ immunisation.
For macroscopic assessment of arthritis, the following signs were monitored in each paw of each mouse three times per week and summed to generate the Arthritic Index (AI) (the maximum AI for one animal is 16): • 0=no visible effects of arthritis. • 1=oedema and/or erythema of 1 digit. • 2=oedema and/or erythema of 2 digits. • 3=oedema and/or erythema of more than 2 digits. • 4=severe arthritis of entire paw and digits.
Animals were sorted into treatment groups with a mean arthritic index of 2.5 and then dosed once daily for 14 days with compound by oral gavage for test compounds, or by subcutaneous injection at a dose of 10 mg/kg for the positive control, etanercept. After completion of the experiment, the mice were sacrificed.
The data were analysed by generating an average of the arthritic index across each treatment group. The mean arthritic index was then compared to the arthritic index of control (untreated) animals using the following formula to generate a percentage inhibition of disease.

[3] = test system: IL-6 release from LPS-stimulated Thp1 macrophages; assay: Thp1 Macrophage IL-6 Release Assay; type: cell-based; details: Homo sapiens
Description: Anti-inflammatory effects were further characterised by assessing the production of interleukin-6 (IL-6) by human Thp-1 derived macrophages stimulated with a pro-inflammatory stimulus bacterial lipopolysaccharide (LPS). LPS acts with a cell-surface receptor, Toll-like receptor-4 to activate the NFκB and IRF signalling pathways to produce IL-6. The reduction of IL—in this stimulated assay is indicative of anti-inflammatory effects with utility in the treatment of conditions in which IL-6 production is aberrant.
In vitro potency of test compounds in human cells was determined by incubation with Thp1 macrophages and subsequent stimulation with an inflammatory stimulus (bacterial lipopolysaccharide (LPS)) followed by measurement of cellular interleukin-6 (IL-6) release.
Thp1 cells were plated at a concentration of 1×10^5 cells/well or 1.7×10^5 cells/well in 500 μL or 150 μL RPMI complete media containing 1% penicillin-streptomycin and 10% heat inactivated foetal bovine serum in 24-well plates or 96-well plates, respectively and allowed to adhere overnight. The following day, the cells were stimulated with phorbol myristic acid (PMA) at a final concentration of 100 nM (24-well plates) or 200 nM (96-well plates) to induce differentiation and maintained for up to 8 days with a medium change at 5 days if cells were cultured to 8 days. Test compounds were prepared as […] solutions in DMSO and then serially diluted in DMSO prior to dilution in culture medium.
The diluted compounds were added to the cultures 1 hour prior to stimulation with 100 ng/mL LPS. Following a 16 or 18 hour incubation at 37° C./5% CO2, the cell culture medium was collected and assayed for human IL-6 levels using the human IL-6 duo-set ELISA kit (R&D Systems). The average results for each test compound (n=3) were expressed as a percent (%) of the average control value. The average values across the concentrations tested were then plotted and the IC50 for the inhibition of IL-6 was calculated by fitting the data to a 4-parameter IC50 equation using software from Grafit version 6.0.12 (Erithacus Software Ltd., by Dr Robin Leatherbarrow) or GraphPad Prism version 5.04 for Windows (GraphPad Software, La Jolla, Calif., USA, www.qraphpad.com). Each experiment was repeated twice and the data are presented as the mean IC50 from both experiments.

[4] = 10 mg/kg/day oral gavage, once daily for 14 days, arthritic index vs control
[5] = THP-1, 1 × 10^5 cells/well, 24-well plates, 8 days, 6 point curve, IL6 measured 16 hours after LPS, read-out: IC50 (1)
[6] = THP-1, 1.7 × 10^5 cells/well, 96-well plates, 3 days, 9 point curve, IL6 measured 18 hours after LPS, read-out: IC50 (2)
[7] = dosed at 0.5 mg/kg intravenously (*)

SMILES | IC50 (hERG ion channel) [nM] | % inhibition of disease [2, 4] [%] | IC50 [3, 6] [nM] | further results
Cc1cc(S(=O)(=O)NC2CCC(C)(O)CC2)ccc1-c1ccc(F)cc1F (single isomer, unassigned) [REF001, reference compound] | – | – | – | p.o. AUC [1]: 4766 ng·min/mL
C[C@]1(O)CC[C@H](NS(=O)(=O)c2ccc(-c3ccc(F)cc3C(F)(F)F)cc2)CC1 [HMC-C-02-A, 4′-Fluoro-N-((1r,4r)-4-hydroxy-4-methylcyclohexyl)-2′-(trifluoromethyl)biphenyl-4-sulfonamide] | 25000 | 61 | 970 | IC50 [3, 5]: 1 nM
C[C@]1(O)CC[C@H](NS(=O)(=O)c2ccc(-c3c(F)cc(F)cc3F)cc2)CC1 [HMC-C-03-A, 2′,4′,6′-Trifluoro-N-((1r,4r)-4-hydroxy-4-methylcyclohexyl)biphenyl-4-sulfonamide] | > 30000 | – | 50 | IC50 [3, 5]: 4 nM
C[C@]1(O)CC[C@H](NS(=O)(=O)c2ccc(-c3ncc(Cl)cc3Cl)c(F)c2)CC1 [HMC-N-04-A, 4-(3,5-Dichloropyridin-2-yl)-3-fluoro-N-((1r,4r)-4-hydroxy-4-methylcyclohexyl)benzenesulfonamide] | > 30000 | – | – | –
C[C@]1(O)CC[C@H](NS(=O)(=O)c2ccc(-c3ccc(F)cc3F)c(F)c2)CC1 [HMC-C-04-A, 2,2′,4′-Trifluoro-N-((1r,4r)-4-hydroxy-4-methylcyclohexyl)-[1,1′-biphenyl]-4-sulfonamide] | – | – | 130 | –
C[C@]1(O)CC[C@@H](NS(=O)(=O)c2ccc(-c3ncc(Cl)cc3Cl)cc2)CC1 [HMC-N-03-B, 4-(3,5-Dichloropyridin-2-yl)-N-((1s,4s)-4-hydroxy-4-methylcyclohexyl)benzenesulfonamide] | – | – | 20 | i.v. AUC [1, 7]: 1380* ng·min/mL
C[C@]1(O)CC[C@@H](NS(=O)(=O)c2ccc(-c3ncc(F)cc3F)c(F)c2)CC1 [HMC-N-01-B, 4-(3,5-Difluoropyridin-2-yl)-3-fluoro-N-((1s,4s)-4-hydroxy-4-methylcyclohexyl)benzenesulfonamide] | – | – | 30 | % inhibition of disease ([2]; dose reduced from 10 to 1 mg/kg/day due to mortality, oral gavage): 38%
C[C@]1(O)CC[C@@H](NS(=O)(=O)c2ccc(-c3ccc(F)cc3F)c(F)c2)CC1 [HMC-C-04-B, 2,2′,4′-Trifluoro-N-((1s,4s)-4-hydroxy-4-methylcyclohexyl)-[1,1′-biphenyl]-4-sulfonamide] | – | – | 30 | i.v. AUC [1, 7]: 1589* ng·min/mL
Cc1cc(S(=O)(=O)N[C@H]2CC[C@H](O)CC2)ccc1-c1ccc(F)cc1F [ABD735] | – | 44 | – | p.o. AUC [1]: 8965 ng·min/mL
C[C@]1(O)CC[C@@H](NS(=O)(=O)c2ccc(-c3c(F)cc(F)cc3F)cc2)CC1 [HMC-C-03-B, 2′,4′,6′-Trifluoro-N-((1s,4s)-4-hydroxy-4-methylcyclohexyl)-[1,1′-biphenyl]-4-sulfonamide] | – | – | 20 | i.v. AUC [1, 7]: 816* ng·min/mL
C[C@]1(O)CC[C@@H](NS(=O)(=O)c2ccc(-c3ccc(Cl)cc3C#N)cc2)CC1 [HMC-C-01-B, 4′-Chloro-2′-cyano-N-((1s,4s)-4-hydroxy-4-methylcyclohexyl)-[1,1′-biphenyl]-4-sulfonamide] | – | 26 | 60 | –
C[C@]1(O)CC[C@@H](NS(=O)(=O)c2ccc(-c3ncc(F)cc3F)cc2)CC1 [HMC-N-02-B, 4-(3,5-Difluoropyridin-2-yl)-N-((1s,4s)-4-hydroxy-4-methylcyclohexyl)benzenesulfonamide] | – | – | 20 | –
C[C@]1(O)CC[C@H](NS(=O)(=O)c2ccc(-c3ccc(Cl)cc3C#N)cc2)CC1 [HMC-C-01-A, 4′-Chloro-2′-cyano-N-((1r,4r)-4-hydroxy-4-methylcyclohexyl)biphenyl-4-sulfonamide] | 19300 | 40 | 180 | % inhibition of disease ([2]; 0.3 mg/kg/day oral gavage, once daily for 14 days): 60%; % inhibition of disease ([2]; 1 mg/kg/day oral gavage, once daily for 14 days): 50%; % inhibition of disease ([2]; 3 mg/kg/day oral gavage, once daily for 14 days): 60%; Efficacy compared with positive control etanercept ([2]; low doses (0.3 and 3 mg/kg/day) vs etanercept 10 mg/kg subcutaneous): greater efficacy than the marketed treatment, etanercept, at low doses; IC50 [3, 5]: 40 nM
C[C@]1(O)CC[C@@H](NS(=O)(=O)c2ccc(-c3ccc(F)cc3F)cc2)CC1 [ABD899, reference compound] | 2900 | 77 | – | p.o. AUC [1]: 10740 ng·min/mL
C[C@]1(O)CC[C@H](NS(=O)(=O)c2ccc(-c3ncc(F)cc3F)c(F)c2)CC1 [HMC-N-01-A, 4-(3,5-Difluoropyridin-2-yl)-3-fluoro-N-((1r,4r)-4-hydroxy-4-methylcyclohexyl)benzenesulfonamide] | 183000 | 45 | 280 | IC50 [3, 5]: 130 nM
C[C@]1(O)CC[C@H](NS(=O)(=O)c2ccc(-c3ncc(Cl)cc3Cl)cc2)CC1 [HMC-N-03-A, 4-(3,5-Dichloropyridin-2-yl)-N-((1r,4r)-4-hydroxy-4-methylcyclohexyl)benzenesulfonamide] | > 30000 | – | – | IC50 [3, 5]: 50 nM; i.v. AUC ([1]; dosed at 2 mg/kg intravenously (†)): 5102 ng·min/mL
C[C@]1(O)CC[C@@H](NS(=O)(=O)c2ccc(-c3ccc(F)cc3C(F)(F)F)cc2)CC1 [HMC-C-02-B, 4′-Fluoro-N-((1s,4s)-4-hydroxy-4-methylcyclohexyl)-2′-(trifluoromethyl)-[1,1′-biphenyl]-4-sulfonamide] | – | – | 290 | –
